Measurements published in EPA's ToxValDB 9.5 (doi:10.2903/j.efsa.2008.122r).
≈ marks a conversion by molar mass, not a printed value.

Assays:
Daphnia magna = details: chronic/long-term; duration: 21 days
Aphidius rhopalosiphi = details: not reported
Apis mellifera = details: acute; duration: 48 hours; dermal; mortality
Cyprinus carpio = details: acute; duration: 96 hours; mortality
Rattus norvegicus = details: for NOAEL: body weight
Oncorhynchus mykiss = details: chronic/long-term; duration: 35 days; growth

## O=C(Nc1ccc(F)cc1F)c1cccnc1Oc1cccc(C(F)(F)F)c1 [Diflufenican]
Daphnia magna
  NOEC: 0.052 mg/L
Aphidius rhopalosiphi; mortality
  LEL: 188 g/ha
Aphidius rhopalosiphi; reproduction
  LEL: 188 g/ha
Apis mellifera
  LD50: > 100 µg/piece
Cyprinus carpio
  LC50: 0.0985 mg/L (≈ 0.25 µM)
Bird; acute, oral, unspecified, mortality
  LD50: > 2150 mg/kg
Bird; reproductive
  NOEC: 91.8 mg/kg
Rattus norvegicus; acute, oral, mortality
  LD50: > 5000 mg/kg
Rattus norvegicus; chronic, duration: 2 years
  NOAEL: 23.3 mg/kg-day
Rattus norvegicus; reproduction developmental, M
  NOAEL: 35.5 mg/kg-day
Rattus norvegicus; subchronic, duration: 13 weeks, oral
  NOAEL: 19.5 mg/kg-day
Tagia sp.; acute, duration: 14 days, mortality
  LC50: > 1000 mg/kg
Tagia sp.; chronic/long-term, reproduction
  NOEC: 1000 mg/kg
Oncorhynchus mykiss
  NOEC: 0.015 mg/L
